Test results: US12049662B2, “Rapid antimicrobial susceptibility testing by video-based object scattering intensity detection” (ARIZONA BOARD OF REGENTS ON BEHALF OF ARIZONA STATE …, priority 2021, dated 2024)

Assays:
[1] = tested on: S. saprophyticus ATCC 15305; assay: OSID-AST (object scattering intensity detection) with pure S. saprophyticus culture; details: 2 μg/ml ciprofloxacin
Source text: ICt is the integrated object scattering intensity of samples without antibiotics at time t, IC0 is the initial intensity of the same sample. ΔIC=ICt−IC0 and ΔIABX=IABXt−IABX0, represent the integrated object scattering intensity change at time t for antibiotic-untreated (control) and -treated samples, respectively. […] For antibiotic resistance detection, the integrated object intensity change over time in the raw sample (ΔIC=ICt−IC0) and in the antibiotic treated sample (ΔIABX=IABXt−IABX0) are calculated. If the ratio between the two (ΔIABX/ΔIC) is above a resistant threshold (TR), or ΔIABX/ΔIC>TR, which indicates insufficient bacterial inhibition by the antibiotic, the sample is identified as resistant. If the ratio is at or below TR, bacteria growth is inhibited by the antibiotic, and the sample is defined as susceptible to that antibiotic.

E. coli ATCC 25922 = assay: OSID-AST (object scattering intensity detection) with pure E. coli culture; assay type: cell-based; details: 32 μg/ml nitrofurantoin or 2 μg/ml ciprofloxacin, 5 representative tests
Procedure: The integrated object scattering intensity quantification enables detection of bacterial infection and AST for infection positive samples with an algorithm such as that depicted in FIG. 1C. Two test solutions are prepared from a patient's sample. One solution with medium and antibiotics for AST and the other one with medium only as control. To detect bacterial infection, the integrated object scattering intensity in the control group is quantified over time (e.g., the object scattering intensity is measured every 5 min with the 1 min video and for a total of 90 min). Clinical decision determination is based on integrated object scattering intensity. […] Otherwise, the sample is determined as infection negative. For antibiotic resistance detection, the integrated object intensity change over time in the raw sample (ΔIC=ICt−IC0) and in the antibiotic treated sample (ΔIABX=IABXt−IABX0) are calculated. […]
To establish the method, E. coli and S. saprophyticus cultures (see Materials and Methods) with and without antibiotics were imaged for bacteria growth measurements. […] The integrated object intensity of all cells was quantified with a 1 min duration video in every 5 min interval for a total of 90 min after real-time background removal processing. […] To accurately track E. coli growth, the averaged intensity of a 1 min video was quantified in every 5 min.

Compound | ΔIABX/ΔIC ([1]; 90 min, resistance threshold 0.5) | object intensity change of antibiotic treated sample ([1]; 90 min detection, control sample ~1.7 times) [times] | antibiotic susceptibility determination with OSID-AST ([1]; threshold 0.5) | time at which antibiotic susceptibility of E. coli cells can be determined (object intensity detection) (E. coli ATCC 25922) [min]
O=C(O)c1cn(C2CC2)c2cc(N3CCNCC3)c(F)cc2c1=O [ciprofloxacin] | ~0.14 | ~1.1 | susceptible | 60
O=C1CN(/N=C/c2ccc([N+](=O)[O-])o2)C(=O)N1 [nitrofurantoin] |  |  |  | 40
